According to patent US9879038B2, “Salt of tenofovir disoproxil” (JW Pharmaceutical Corporation, priority 2014, dated 2018):
Entries after “also recorded” stand apart in the source; their conditions may differ.

Assays:
Assay type in all cases: physicochemical
[1] = Evaluation of saturation solubility; parameters: saturation solubility: unit not given here; conditions: for solubility: thermodynamic from solid
Protocol: The saturation solubility of the tenofovir disoproxil hemi-edisylate of the present invention (Example 1) and the tenofovir disoproxil fumarate salt (Comparative Example 1) as a control group were evaluated.

[2] = Evaluation of stability depending on changes in pH; conditions: deionized water and pH 1.2, 4.0, 6.8 buffers, 30° C., HPLC, FIGS. 2 and 3
Protocol: When a drug is orally administered, it is absorbed in vivo through the stomach, duodenum, small intestine, etc. […] In the present invention, stability was measured using deionized water and three different pH buffer solutions (at pH 1.2, 4.0, and 6.8) for release testing. A test method was performed in a manner in which 5 mg of each of the tenofovir disoproxil hemi-edisylate of the present invention and the tenofovir disoproxil fumarate as a control group was accurately weighed, completely dissolved in 1 mL of a mixture of acetonitrile and water (1:19), and then added with 9 mL of each of the above pH buffer solutions. The individual samples thus prepared were placed in a chamber at 30° C. and changes in the amounts thereof over time were quantified using HPLC.

[3] = Evaluation of stability (stressed conditions) depending on generation of related substances, HPLC (USP); conditions: for related substance generated: FIG. 1c
Protocol: In order to evaluate stability (stressed conditions), according to the ICH guidelines, tenofovir disoproxil edisylate of the present invention (Example 1: TDE) and tenofovir disoproxil fumarate (Comparative Example 1: TDF) as a control group were used, and analyzed using high-perfoiinance liquid chromatography (HPLC) as set forth in the U.S. Pharmacopeia (USP). The results are shown in Table 1 below (stressed conditions: 60±2° C.).
The tenofovir disoproxil hemi-edisylate of the present invention (Example 1: TDE (hemi salt)), serving as a test group, and tenofovir disoproxil mono-edisylate (Comparative Example 2: TDE (mono salt)), serving as a control group, were evaluated for stability for 3 weeks in the same manner as in (1) above.

[4] = stressed conditions 60±2° C., 7 days
[5] = stressed conditions 60±2° C., 14 days
[6] = stressed conditions 60±2° C., 21 days
[7] = stressed conditions 60±2° C., Initial

## 9-[(R)-2-[[bis[[(isopropoxycarbonyl)oxy]methoxy]phosphinyl]methoxy]propyl]adenine hemiedisylate [TDE]
[1]; DW (Deionized Water)
  saturation solubility: 2200
[1]; pH 1.2
  saturation solubility: 2680
[1]; pH 4.0
  saturation solubility: 2280
[1]; pH 6.8
  saturation solubility: 2400
[2]
  stability depending on changes in pH: stability equal to that of a conventional tenofovir disoproxil fumarate product
[3]; stressed conditions 60±2° C., 3 weeks, versus control salt, listed as tenofovir disoproxil hemi-edisylate
  stability under stressed conditions (in words): very stable under stressed conditions compared to the disoproxil fumarate; also recorded: very stable under stressed conditions compared to the tenofovir disoproxil mono-edisylate
[3]; [4]
  Related substances: Tenofovir disoproxil ethyl ester: 0.02%
  Related substances: Tenofovir isopropyl isoproxil: 0.04%
  Related substances: Tenofovir isoproxil monoester: 0.27%
[3]; [5]
  Related substances: Tenofovir disoproxil ethyl ester: 0.01%
  Related substances: Tenofovir isopropyl isoproxil: 0.04%
  Related substances: Tenofovir isoproxil monoester: 0.30%
[3]; [6]
  Related substances: Tenofovir disoproxil ethyl ester: 0.02%
  Related substances: Tenofovir isopropyl isoproxil: 0.04%
  Related substances: Tenofovir isoproxil monoester: 0.37%
[3]; [7]
  Related substances: Tenofovir disoproxil ethyl ester: 0.01%
  Related substances: Tenofovir isopropyl isoproxil: 0.04%
  Related substances: Tenofovir isoproxil monoester: 0.26%
[3]; stressed conditions, 3rd week
  related substance generated: 0.37
[3]; stressed conditions, 3rd week, related substance 0.37 vs 5.62
  stability superior to that of tenofovir disoproxil mono-edisylate: at least 15 times

## CC(C)OC(=O)OCOP(=O)(COC(C)Cn1cnc2c(N)ncnc21)OCOC(=O)OC(C)C.O=S(=O)(O)CCS(=O)(=O)O (centres unmarked) [tenofovir disoproxil mono-edisylate, Tenofovir disoproxil mono-edisylate]
[3]; stressed conditions, 3rd week
  related substance generated: 5.62

## CC(C)OC(=O)OCOP(=O)(CO[C@H](C)Cn1cnc2c(N)ncnc21)OCOC(=O)OC(C)C.O=C(O)/C=C/C(=O)O [TDF, 9-[2-(R)-[[bis[[(isopropoxycarbonyl)oxy]methoxy]phosphinoyl]methoxy]propyl]adenine fumaric acid (1:1)]
[1]; aqueous buffer, pH 4.0
  solubility: 13.2 mg/mL
[1]; pH 1.2, simulated gastric fluid
  solubility: 39.2 mg/mL
[1]; pH 6.8, aqueous buffer
  solubility: 9.4 mg/mL
[1]; DW (Deionized Water)
  solubility: 13.5 mg/mL
[3]; [4]
  Related substances: Adenine: 0.01%
  Related substances: Tenofovir isoproxil monoester: 0.79%
  Related substances: Unspecified impurity-1: 0.01%
  Related substances: Unspecified impurity-2: 0.09%
  Related substances: Unspecified impurity-3: 0.03%
  Related substances: Unspecified impurity-5: 0.21%
[3]; [5]
  Related substances: Adenine: 0.01%
  Related substances: Tenofovir isoproxil monoester: 1.26%
  Related substances: Unspecified impurity-1: 0.05%
  Related substances: Unspecified impurity-2: 0.27%
  Related substances: Unspecified impurity-3: 0.04%
  Related substances: Unspecified impurity-4: 0.04%
  Related substances: Unspecified impurity-5: 0.63%
  Related substances: Unspecified impurity-6: 0.07%
  Related substances: Unspecified impurity-7: 0.42%
[3]; [6]
  Related substances: Adenine: 0.01%
  Related substances: Tenofovir isoproxil monoester: 1.81%
  Related substances: Unspecified impurity-2: 0.18%
  Related substances: Unspecified impurity-3: 0.03%
  Related substances: Unspecified impurity-5: 0.21%
[3]; [7]
  Related substances: Adenine: 0.01%
  Related substances: Tenofovir isoproxil monoester: 0.42%
  Related substances: Unspecified impurity-2: 0.03%
  Related substances: Unspecified impurity-3: 0.02%
  Related substances: Unspecified impurity-5: 0.05%
